The source of these data is US4956294A, “Culture of Streptoverticillium synroense for producing an antibacterial” (Merck & Co., Inc., priority 1989, dated 1990).

For experiment [1], the system named is Bacillus subtilis 964 (6633). In words: Inhibition zone, agar plate. The experiment is classed as cell-based. As to conditions: 15λ, read-out: Inhibition Zone Diameter.
In the next experiment the test system is Staph. aureus 2865. In words: Agar dilution, antagonist-free medium.
Experiment [2] concerns Vibrio percolans 1272 (8461). The experiment in a line: Inhibition zone, agar plate. In kind it is cell-based. As to conditions: Comamonas terrigena, 15λ, read-out: Inhibition Zone Diameter.
In experiment [3] the test system is B. thetalotamicron Clind^r, NCCLS control strain 4420. In words: Anaerobic agar dilution, Wilkens-Chalgren agar. In kind it is cell-based. As to conditions: 48 h. On the technique in general: In agar dilution the substance is mixed into plates at graded concentrations.
In experiment [4] the test system is Bordetella bronchiseptica (3771). The experiment in a line: Protection and survival of infected mice. To be noted: intraperitoneal.
Another experiment concerns E. coli TEM 2+ DC2 4352. The experiment in a line: Agar dilution, trypticase soy agar. As to conditions: Escherichia coli, 20 h.
The subject of another experiment is C. perfringens 3510. The experiment in a line: microbe, parasite or virus in culture. In kind it is cell-based. To be noted: Clostridium perfringens, 3510, 48 h.
In the next experiment the test system is Prot. vulgaris 2829. In words: Agar dilution, antagonist-free medium. To be noted: Proteus vulgaris, 2829, 20 h.

Values after ≈ are worked out from the molar mass of the structure shown. “Also recorded” adds a separate entry of the source. A value given as a limit tells only on which side of the number the result lay.

As to `C[C@H](CNC(=O)[C@H]1N=C(c2cccc(O)c2O)O[C@@H]1C)C(=O)N[C@@H]1CCCN(O)C1=O` [L-654,040, 2-(2,3-dihydroxyphenyl)-4,5-dihydro-N-[3-[(1-hydroxy-2-oxo-3(R)-piperidinyl)-amino]-2(R)-methyl-3-oxopropyl]-5R-methyl-4S-oxazolecarboxamide], the results for the zone of inhibition at 500 µg/mL in experiment [1] (0.5 mg/ml in distilled H2O) and in experiment [2] (0.5 mg/ml in distilled H2O) were 12 mm and 18 mm, respectively. The zone of inhibition at 2000 µg/mL worked out at 14 mm in experiment [1] (2 mg/ml in distilled H2O) and 25 mm in experiment [2] (2 mg/ml in distilled H2O). Further, in the experiment on Staph. aureus 2865 (Staphylococcus aureus 2865), the sensitivity of strain result was “sensitive”. Moreover, the MIC was 32 µg/mL (≈ 73.7 µM) in the experiment with Staph. aureus 2865 (Staphylococcus aureus, 2865, 20 h); greater than 128 µg/mL in experiment [3]; 128 µg/mL (≈ 295 µM) in the experiment with E. coli TEM 2+ DC2 4352; 128 µg/mL (≈ 295 µM) in the experiment with C. perfringens 3510; greater than 256 µg/mL against Prot. vulgaris 2829. Further, the protection against infection result in experiment [4] is “did not protect”. Besides, the survival time entry in experiment [4] (160 mg/kg x 2, significant only in Pasteurella-infected animals) is “prolongation of survival time was observed; also recorded: did prolong the survival time”.
